Read-outs that look alike come from different tables or passages of the source.
Experiments:
CMP-KDO synthetase = CMP-KDO synthetase (Escherichia coli, UniProt P04951); experiment: Inhibition of CMP-KDO synthetase activity (colorimetric phosphate); assay type: biochemical, gram-negative bacteria
Experimental: The inhibition of CMP-KDO synthetase activity was measured in reaction mixtures buffered at pH 9.5 containing: 2 mM KDO, 5 mM magnesium cytidine triphosphate, and inorganic pyrophosphatase. The pyrophosphate generated during the course of enzyme reaction was cleaved by the pyrophosphatase to inorganic orthophosphate, the level of which was measured colorimetrically. […] Potency was assessed by determining the level of inhibitor required to inhibit the enzyme reaction by 50% under the conditions of the assay described above (I50). A potent inhibitor is defined as one having an I50 of 1 mM or less.

Serratia marcescens = experiment: Mouse protection assay, Serratia marcescens; assay type: in vivo; settings: mice infected with lethal dose of Serratia marcescens
Experimental: (§1) Antibacterial activity of the compounds were tested in a mouse protection assay against Escherichia Coli Juhl, Serratia marcescens and the gram positive bacterium Staphylococcus aureus.

Escherichia Coli Juhl = experiment: Mouse protection assay, Escherichia Coli Juhl; assay type: in vivo; settings: mice infected with lethal dose of Escherichia Coli Juhl
Experimental: as §1

Sequence of CMP-KDO synthetase (P04951 whole entry): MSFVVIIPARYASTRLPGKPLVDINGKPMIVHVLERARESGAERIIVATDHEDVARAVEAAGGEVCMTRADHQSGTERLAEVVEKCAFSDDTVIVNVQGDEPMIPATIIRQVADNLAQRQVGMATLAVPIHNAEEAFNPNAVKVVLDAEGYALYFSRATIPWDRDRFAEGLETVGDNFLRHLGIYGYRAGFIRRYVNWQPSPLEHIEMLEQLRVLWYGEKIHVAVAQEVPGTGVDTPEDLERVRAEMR

CCNC[C@@H](O)[C@H]1OC(O)(C(=O)O)C[C@@H](O)[C@H]1O (stereo partly drawn) [Example 6, 8-Ethylamino-3,8-dideoxy-D-manno-2-octulosonate]
IC50 (CMP-KDO synthetase): 70 µM

NC[C@@H](O)[C@H]1OC(O)(C(=O)O)C[C@@H](O)[C@H]1O (stereo partly drawn) [Example 1, 8-Amino-3,8-dideoxy-D-manno-2-octulosonate]
ED50 (Serratia marcescens): 30 mg/kg | ED50 (Escherichia Coli Juhl): 25 mg/kg | IC50 (CMP-KDO synthetase): 310 µM

NCC(=O)NCC(=O)NC[C@@H](O)[C@H]1O[C@H](C(=O)O)C[C@@H](O)[C@H]1O [Example 3, α-C-[1,5-anhydro-7-(glycyl-glycylamino)-2,7-dideoxy-D-manno-heptopyranosyl]-carboxylate]
ED50 (Serratia marcescens): 12.5 mg/kg | ED50 (Escherichia Coli Juhl): 6.3 mg/kg | IC50 (CMP-KDO synthetase): 230 µM

CNC[C@@H](O)[C@H]1OC(O)(C(=O)O)C[C@@H](O)[C@H]1O (stereo partly drawn) [Example 4, 8-Methylamino-3,8-dideoxy-D-manno-2-octulosonate]
IC50 (CMP-KDO synthetase): 81 µM

NC[C@@H](O)[C@H]1O[C@H](C(=O)O)C[C@@H](O)[C@H]1O [Example 2, α-C-[1,5-anhydro-7-amino-2,7-dideoxy-D-manno-heptopyranosyl]-carboxylate]
ED50 (Serratia marcescens): 6.3 mg/kg | ED50 (Escherichia Coli Juhl): 3.1 mg/kg | IC50 (CMP-KDO synthetase): 7 µM

CN(C)C[C@@H](O)[C@H]1OC(O)(C(=O)O)C[C@@H](O)[C@H]1O (stereo partly drawn) [Example 5, 8-Dimethylamino-3,8-dideoxy-D-manno-2-octulosonate]
IC50 (CMP-KDO synthetase): 220 µM

NCC[C@@H](O)[C@H]1O[C@H](C(=O)O)C[C@@H](O)[C@H]1O [Example 7, α-C-[1,5 Anhydro-8-amino-2,7,8-trideoxy-D-mannooctopyranosyl] carboxylate]
IC50 (CMP-KDO synthetase; pH 9.5, 2 mM KDO, 5 mM magnesium cytidine triphosphate, inorganic pyrophosphatase, read-out: I50): 1.9 µM
